Read-outs that look alike come from different tables or passages of the source.
Columns and labels:
[1] = target: T1, NMDA (NR1/NR2A) receptors (Rattus norvegicus, UniProt P35439+Q00959); test: NMDA receptor two-electrode voltage clamp in oocytes at saturated drug concentration; assay type: cell-based; details: saturating aqueous concentration
T1 construct: expressed in transfected cells; host or cells: Xenopus laevis oocytes (RNA injection, 1:1)
Source text: (§1) GABAA (α1β2γ2s) or NMDA (NR1/NR2A) receptors were expressed in oocytes and studied using standard two-electrode voltage clamp techniques. Hydrocarbons from 14 different organic functional groups were studied at saturated concentrations, and compounds within each group differed only by the carbon number at the ω-position or within a saturated ring. An effect on GABAA or NMDA receptors was defined as a 10% or greater reversible current change from baseline that was statistically different from zero.
(§2) An ovary from tricaine-anesthetized Xenopus laevis frogs was surgically removed using a protocol approved by the Institutional Animal Care and Use Committee at the University of California, Davis. Following manual disruption of the ovarian lobule septae, the ovary was incubated in 0.2% Type I collagenase (Worthington Biochemical, Lakewood, N.J.) to defolliculate oocytes which were washed and stored in fresh and filtered modified Barth's solution composed of 88 mM NaCl, 1 mM KCl, 2.4 mM NaHCO3, 20 mM HEPES, 0.82 mM MgSO4, 0.33 mM Ca(NO3)2, 0.41 mM CaCl2, 5 mM sodium pyruvate, gentamycin, penicillin, streptomycin, and corrected to pH=7.4. All salts and antibiotics were A.C.S. grade (Fisher Scientific, Pittsburgh, Pa.).
(§3) Clones used were provided as a gift from Dr. R. A. Harris (University of Texas, Austin) and were sequenced and compared to references in the National Center for Biotechnology Information database to confirm the identity of each gene. GABAA receptors were expressed using clones for the human GABAA α1 and the rat GABAA β2 and γ2s subunits in pCIS-II vectors. […] In separate oocytes, glutamate receptors were expressed using rat NMDA NR1 clones in a pCDNA3 vector and rat NMDA NR2A clones in a Bluescript vector. RNA encoding each subunit was prepared using a commercial transcription kit (T7 mMessage mMachine, Ambion, Austin, Tex.) was mixed in a 1:1 ratio, and 1-10 ng of total RNA was injected into oocytes and studied 1-2 days later.
Briefly, baseline perfusion solutions were the same as for GABAA with the substitution of equimolar BaCl2 for calcium salts and the addition of 0.1 mM EGTA; this constituted barium frog Ringer's solution (BaFR). Agonist solutions for NMDA studies also contained 0.1 mM glutamate (E) and 0.01 mM glycine (G) to constitute a BaFREG solution.
The syringe pump and perfusion chamber apparatus as well as the clamp holding potential and baseline-agonist exposure protocols were identical to that described for the GABAA studies. The same test compounds, concentrations, and preparative methods were used in NMDA voltage clamp studies as in the GABAA voltage clamp studies (Table 2).
(§4) Modulating drug responses were calculated as the percent of the control (baseline) peak as follows: 100·ID/IB, where ID and IB were the peak currents measured during agonist+drug and agonist baseline perfusions, respectively. When present, direct receptor activation by a drug was similarly calculated as a percent of the agonist response. […] A lack of receptor response (cut-off) was defined as a<10% change from baseline current that was statistically indistinguishable from zero using a two-tailed Student t-test.

[2] = target: T2, GABAA (α1β2γ2s) receptors (UniProt P14867+P18508+P63138); test: GABAA receptor two-electrode voltage clamp in oocytes at saturated drug concentration; assay type: cell-based, human α1, rat β2 and γ2s; details: saturating aqueous concentration
T2 construct: expressed in transfected cells; host or cells: Xenopus laevis oocytes (intranuclear plasmid injection, α1:β2:γ2 = 1:1:10)
Source text: as §1, §2, §3
Oocytes were studied in a 250 μL linear-flow perfusion chamber with solutions administered by syringe pump at 1.5 ml/min with gastight glass syringes and Teflon tubing. Oocyte GABAA currents were studied using standard two-electrode voltage clamping techniques at a holding potential of […] using a 250 μL channel linear-flow perfusion chamber with solutions administered by syringe pump at 1.5 mL/min.
After FR perfusion for 5 min, oocytes were exposed to 30 sec FR-GABA followed by another 5 min FR washout; this was repeated until stable GABAA-elicited peaks were obtained. Next, FR containing a saturated solution of the study drug (Table 2)—or for gaseous study compounds a vapor pressure equal to 90% of barometric pressure with balance oxygen—was used to perfuse the oocyte chamber for 2 min followed by perfusion with a FR-GABA solution containing the identical drug concentration for 30 sec.
as §4

[3] = Loss of righting reflex in Sprague-Dawley rats (inhaled agent); assay type: in vivo
Protocol: 1,1,2,2,3,3,4,5-octafluorocyclopentane (CAS#828-35-3) caused a loss of righting reflex in 4 healthy Sprague-Dawley rats at a concentration of 3.3±0.4 (mean±SD) percent of 1 atmosphere. […] After discontinuing the agent, rats were awake and ambulatory in less than 1 minute. […] Despite a lack of NMDA receptor effects, 1,1,2,2,3,3,4,5-octafluorocyclopentane is able to produce the desired pharmacologic endpoints of unconsciousness and immobility that appears similar to desirable effects produced by conventional agents.

[4] = system: glycine receptors; test: Glycine receptor modulation in vitro; assay type: cell-based
[5] = system: inhibitory potassium channels; test: Inhibitory potassium channel modulation in vitro; assay type: cell-based; details: some inhibitory potassium channels
[6] = Loss of righting reflex in mice (inhaled agent); assay type: in vivo
Protocol: (§5) HFCP caused loss of righting reflex (a surrogate measure of unconsciousness) in 4 healthy ND4 mice at 1.0±0.2 (mean±SD) percent of 1 atmosphere. […] After 2 hours of anesthesia, mice were awake after about 1 minute of discontinuing HFCP administration. […] Despite a lack of NMDA receptor effects, 1,1,2,2,3,3,4-heptafluorocyclopentane is able to produce the desired pharmacologic endpoints of unconsciousness and immobility that appears similar to desirable effects produced by conventional agents.

[7] = aqueous phase; Tadpole; cited from earlier work
[8] = system: 3-transmembrane (TM3) and 4-transmembrane (TM4) receptors; details: grouped by calculated molar solubility in unbuffered water at 25° C.; cited from earlier work
[9] = Histopathology of heart, lung, kidney and liver tissues after anesthesia; assay type: in vivo, ND4 mice; details: collected 2 days later
Protocol: as §5

[10] = Stability in soda lime; assay type: physicochemical
Source text: Divalent bases (and sometimes monovalent bases) are used for CO2 absorption in anesthetic circuits; clinically-useful agents must therefore be stable in the presence of strong bases. […] Anesthetics should also be resistant to hydrolysis and redox reactions in vivo. Compounds with ester linkages can be thermally unstable or hydrolysed by plasma and tissue cholinesterases; and those compounds resistant to hydrolysis may likely cause undesirable inhibition of these enzymes (which are essential for metabolism of other drugs). Therefore, compounds with ester linkages are not preferred. Anesthetics with non-aromatic unsaturated carbon linkages have been used historically (fluroxene, isopropenyl vinyl ether, trichloroethylene, vinethylene, ethylene) and shown to undergo extensive metabolism that for some agents was associated with toxicity. Agents containing double or triple carbon bonds are not preferred.

[11] = aqueous phase; Human; cited from earlier work
[12] = system: GABAA receptor; details: 365 μM ketamine; cited from earlier work
[13] = read-out: Aqueous EC50; aqueous phase; Rat; cited from earlier work
[14] = target: NMDA receptor; details: read-out: IC50, inhibition of NMDA receptor currents; cited from earlier work
[15] = system: oocyte; test: Cytotoxicity during oocyte electrophysiology studies; assay type: cell-based, Xenopus laevis
Source text: These compounds are not preferred. Other structures previously known to be highly toxic to animals or humans (such as silanes and boranes) are not preferred.

T2 sequence (P14867 28-456): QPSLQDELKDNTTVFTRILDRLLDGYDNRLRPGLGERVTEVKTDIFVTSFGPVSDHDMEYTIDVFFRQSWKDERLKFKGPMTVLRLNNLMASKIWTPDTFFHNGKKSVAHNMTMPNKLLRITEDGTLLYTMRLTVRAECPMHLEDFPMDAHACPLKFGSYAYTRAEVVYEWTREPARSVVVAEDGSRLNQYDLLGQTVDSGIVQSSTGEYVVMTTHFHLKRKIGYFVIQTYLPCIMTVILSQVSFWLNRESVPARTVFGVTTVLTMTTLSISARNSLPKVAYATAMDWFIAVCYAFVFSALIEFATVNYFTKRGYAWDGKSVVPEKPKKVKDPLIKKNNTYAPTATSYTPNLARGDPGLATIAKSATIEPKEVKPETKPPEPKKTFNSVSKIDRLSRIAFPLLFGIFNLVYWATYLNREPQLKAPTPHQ
T2 sequence (P63138 25-474 limits assumed): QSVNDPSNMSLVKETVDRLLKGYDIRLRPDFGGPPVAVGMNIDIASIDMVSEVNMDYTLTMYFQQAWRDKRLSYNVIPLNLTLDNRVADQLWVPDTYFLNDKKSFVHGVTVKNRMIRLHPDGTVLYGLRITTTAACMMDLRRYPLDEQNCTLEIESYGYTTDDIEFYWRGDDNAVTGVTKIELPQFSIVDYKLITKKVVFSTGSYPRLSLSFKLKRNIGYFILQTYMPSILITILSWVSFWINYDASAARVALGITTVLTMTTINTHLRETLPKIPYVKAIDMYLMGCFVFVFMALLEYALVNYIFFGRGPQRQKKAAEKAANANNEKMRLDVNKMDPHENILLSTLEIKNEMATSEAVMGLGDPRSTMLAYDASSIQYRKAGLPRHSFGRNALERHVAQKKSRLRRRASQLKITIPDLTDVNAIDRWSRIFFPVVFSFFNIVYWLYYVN
T2 sequence (P18508 39-466): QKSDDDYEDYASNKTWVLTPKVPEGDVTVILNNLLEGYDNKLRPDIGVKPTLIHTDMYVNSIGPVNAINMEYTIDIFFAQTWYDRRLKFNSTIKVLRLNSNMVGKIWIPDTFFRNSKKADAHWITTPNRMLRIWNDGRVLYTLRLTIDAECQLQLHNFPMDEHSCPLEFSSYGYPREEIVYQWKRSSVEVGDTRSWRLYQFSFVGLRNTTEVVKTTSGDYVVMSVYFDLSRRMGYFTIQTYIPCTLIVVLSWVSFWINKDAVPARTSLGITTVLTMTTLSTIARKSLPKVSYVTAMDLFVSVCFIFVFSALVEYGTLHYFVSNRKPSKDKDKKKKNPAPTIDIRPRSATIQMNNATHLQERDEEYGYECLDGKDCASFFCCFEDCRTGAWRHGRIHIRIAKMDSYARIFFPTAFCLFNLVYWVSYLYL
T1 sequence (Q00959 23-1464, other chains not shown): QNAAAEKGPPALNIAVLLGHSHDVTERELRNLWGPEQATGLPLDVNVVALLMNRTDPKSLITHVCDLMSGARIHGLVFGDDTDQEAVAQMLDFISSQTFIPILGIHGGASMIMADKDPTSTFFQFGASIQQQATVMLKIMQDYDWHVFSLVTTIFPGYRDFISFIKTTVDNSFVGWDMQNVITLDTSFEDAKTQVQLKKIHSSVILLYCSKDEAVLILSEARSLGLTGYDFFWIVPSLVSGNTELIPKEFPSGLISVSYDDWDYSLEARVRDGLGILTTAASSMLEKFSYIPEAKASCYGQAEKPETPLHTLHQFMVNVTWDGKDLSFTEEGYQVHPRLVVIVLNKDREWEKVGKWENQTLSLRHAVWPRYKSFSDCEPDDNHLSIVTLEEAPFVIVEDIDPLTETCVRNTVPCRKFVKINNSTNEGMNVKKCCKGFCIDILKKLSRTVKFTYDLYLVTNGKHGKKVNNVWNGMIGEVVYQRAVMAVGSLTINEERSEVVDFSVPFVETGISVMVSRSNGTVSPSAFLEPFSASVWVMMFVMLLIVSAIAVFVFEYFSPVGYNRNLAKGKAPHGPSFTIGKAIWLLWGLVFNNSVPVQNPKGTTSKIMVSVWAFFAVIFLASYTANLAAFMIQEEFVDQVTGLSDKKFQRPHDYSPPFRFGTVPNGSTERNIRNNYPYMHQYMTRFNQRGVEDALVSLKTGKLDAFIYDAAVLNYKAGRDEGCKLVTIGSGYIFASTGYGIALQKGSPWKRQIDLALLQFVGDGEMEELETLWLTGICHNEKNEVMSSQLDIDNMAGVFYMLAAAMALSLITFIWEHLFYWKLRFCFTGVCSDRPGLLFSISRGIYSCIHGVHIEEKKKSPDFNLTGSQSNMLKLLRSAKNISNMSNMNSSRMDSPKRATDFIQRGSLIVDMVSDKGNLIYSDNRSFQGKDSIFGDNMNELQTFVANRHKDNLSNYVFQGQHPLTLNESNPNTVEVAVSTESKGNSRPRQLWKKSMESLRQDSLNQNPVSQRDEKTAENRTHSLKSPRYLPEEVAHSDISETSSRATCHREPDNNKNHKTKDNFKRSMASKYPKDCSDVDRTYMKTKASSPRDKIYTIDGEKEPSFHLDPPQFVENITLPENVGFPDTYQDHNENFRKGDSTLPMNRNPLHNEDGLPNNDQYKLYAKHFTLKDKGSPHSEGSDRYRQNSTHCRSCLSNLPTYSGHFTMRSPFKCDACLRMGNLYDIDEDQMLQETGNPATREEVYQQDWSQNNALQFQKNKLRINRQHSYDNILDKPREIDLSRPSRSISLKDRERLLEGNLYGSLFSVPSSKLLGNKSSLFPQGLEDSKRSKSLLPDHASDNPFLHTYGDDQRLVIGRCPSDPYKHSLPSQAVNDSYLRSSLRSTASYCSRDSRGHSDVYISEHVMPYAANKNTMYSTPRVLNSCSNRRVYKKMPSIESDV

**Q.** Which “NMDA receptor modulation (in words)” value [1] does the source give for `FC1C(F)C(F)(F)C(F)(F)C1(F)F` (stereo not shown) [1,1,2,2,3,3,4,5-octafluorocyclopentane] here?
**A.** Its value is “no effect”.

**Q.** What about the “GABAA receptor modulation (in words)” value [2] of the same molecule?
**A.** Its value is “potentiates”.

**Q.** And the “concentration causing loss of righting reflex” value (from here on “concentration causing loss”) ([3]; 4 healthy Sprague-Dawley rats, mean±SD, inhaled)?
**A.** The value was 3.3±0.4% of 1 atmosphere.

**Q.** What about the “excitement or coughing during anesthetic induction” value ([3]; rats) of the same molecule?
**A.** The value was “without excitement or coughing”.

**Q.** And the “time to awake and ambulatory after discontinuing the agent” value ([3]; rats)?
**A.** The value was “less than 1 minute”.

**Q.** What about the “glycine receptor modulation (in words)” value [4] of the same molecule?
**A.** Its value is “potentiates”.

**Q.** And the “inhibitory potassium channel modulation (in words)” value [5]?
**A.** The value was “potentiates”.

**Q.** Which “concentration causing loss” value ([6]; mice) does the source give for `FC1C(F)(F)C(F)(F)OC1(F)C(F)(F)F` (stereo not shown) [2,2,3,3,4,5-hexafluorotetrahydro-5-(trifluoromethyl)-furan] here?
**A.** The value was 1-10%.

**Q.** With `ClC(Cl)Cl` [Chloroform] as the molecule, how does the EC50 [7] read?
**A.** Its EC50 is 1300 µM.

**Q.** For `Cc1cccc([C@H](C)c2cnc[nH]2)c1C` [Dexmedetomidine], which EC50 [7] is on record?
**A.** Its EC50 is 7 µM.

**Q.** Which EC50 [7] does the source give for `CCOCC` [Diethyl ether] here?
**A.** Its EC50 is 25000 µM.

**Q.** What about the “ion channel modulation, TM3 versus TM4 receptors (FIG. 2)” value [8] of the same molecule?
**A.** The value was “modulate both 3-transmembrane (TM3) and TM4 receptors”.

**Q.** With `CCOC(=O)c1cncn1[C@H](C)c1ccccc1` [Etomidate] as the molecule, how does the EC50 [7] read?
**A.** The EC50 was 3 µM.

**Q.** And the “ion channel modulation, TM3 versus TM4 receptors (FIG. 2)” value [8]?
**A.** The value was “modulate 4-transmembrane receptors (TM4) or neither receptor type”.

**Q.** What does the source list for `FC1CC(F)(F)C(F)(F)C1(F)F` (stereo not shown) [HFCP, 1,1,2,2,3,3,4-heptafluorocyclopentane]?
**A.** NMDA receptor modulation (in words) [1]: no effect; GABAA receptor modulation (in words) [2]: potentiates; concentration causing loss of righting reflex ([6]; 4 healthy ND4 mice, mean±SD, inhaled): 1.0±0.2% of 1 atmosphere; excitement or coughing during anesthetic induction ([6]; mice): no excitement or coughing; time to awake after discontinuing administration ([6]; mice, after 2 hours of anesthesia): about 1 minute; histopathology of heart, lung, kidney and liver tissues [9]: no evidence of inflammation or toxicity; glycine receptor modulation (in words) [4]: potentiates; inhibitory potassium channel modulation (in words) [5]: potentiates; stability in soda lime [10]: stable in soda lime

**Q.** For `FC(F)(F)C(Cl)Br` (stereo not shown) [Halothane], which EC50 [7] is on record?
**A.** The EC50 was 230 µM.

**Q.** What about the “ion channel modulation, TM3 versus TM4 receptors (FIG. 2)” value [8] of the same molecule?
**A.** Its value is “modulate both 3-transmembrane (TM3) and TM4 receptors”.

**Q.** Which EC50 [7] does the source give for `FC(F)OC(Cl)C(F)(F)F` (stereo not shown) [Isoflurane] here?
**A.** The EC50 was 290 µM.

**Q.** And the “ion channel modulation, TM3 versus TM4 receptors (FIG. 2)” value [8]?
**A.** Its value is “modulate both 3-transmembrane (TM3) and TM4 receptors”.

**Q.** Which results are given for `CNC1(c2ccccc2Cl)CCCCC1=O` (stereo not shown) [Ketamine]?
**A.** EC50 [11]: 2 µM; increase of GABAA receptor currents [12]: 56%; ion channel modulation, TM3 versus TM4 receptors (FIG. 2) [8]: modulate both 3-transmembrane (TM3) and TM4 receptors

**Q.** With `COC(F)(F)C(Cl)Cl` [Methoxyflurane] as the molecule, how does the EC50 [7] read?
**A.** Its EC50 is 210 µM.

**Q.** And the “ion channel modulation, TM3 versus TM4 receptors (FIG. 2)” value [8]?
**A.** Its value is “modulate both 3-transmembrane (TM3) and TM4 receptors”.

**Q.** Which “concentration causing loss” value ([6]; mice) does the source give for `FC1(F)OC(F)(F)C(F)(F)C(F)(F)C1(F)F` [Perfluorotetrahydropyran] here?
**A.** The value was 1-10%.

**Q.** Which “ion channel modulation, TM3 versus TM4 receptors (FIG. 2)” value [8] does the source give for `CC(C)c1cccc(C(C)C)c1O` [Propofol] here?
**A.** The value was “modulate both 3-transmembrane (TM3) and TM4 receptors”.

**Q.** And the EC50 [13]?
**A.** Its EC50 is 2 µM.

**Q.** What about the IC50 [14] of the same molecule?
**A.** Its IC50 is 160 µM.

**Q.** Which EC50 [11] does the source give for `CCCC(C)C1(CC)C(=O)NC(=S)NC1=O` (stereo not shown) [Thiopental] here?
**A.** The EC50 was 25 µM.

**Q.** With `C[C@]12N[C@H](Cc3ccccc31)c1ccccc12` [dizocilpine] as the molecule, how does the “ion channel modulation, TM3 versus TM4 receptors (FIG. 2)” value [8] read?
**A.** The value was “modulate both 3-transmembrane (TM3) and TM4 receptors”.

**Q.** Which “ion channel modulation, TM3 versus TM4 receptors (FIG. 2)” value [8] does the source give for `FC(F)OC(F)(F)C(F)Cl` (stereo not shown) [enflurane] here?
**A.** The value was “modulate both 3-transmembrane (TM3) and TM4 receptors”.

**Q.** Which “ion channel modulation, TM3 versus TM4 receptors (FIG. 2)” value [8] does the source give for `CCO` [ethanol] here?
**A.** The value was “modulate both 3-transmembrane (TM3) and TM4 receptors”.

**Q.** With `Cc1ncc2n1-c1ccc(Cl)cc1C(c1ccccc1F)=NC2` [midazolam] as the molecule, how does the “ion channel modulation, TM3 versus TM4 receptors (FIG. 2)” value [8] read?
**A.** Its value is “modulate 4-transmembrane receptors (TM4) or neither receptor type”.

**Q.** For `[N-]=[N+]=O` [nitrous oxide], which “ion channel modulation, TM3 versus TM4 receptors (FIG. 2)” value [8] is on record?
**A.** The value was “modulate both 3-transmembrane (TM3) and TM4 receptors”.

**Q.** For `CCCCCCCCC` [nonane], which “ion channel modulation, TM3 versus TM4 receptors (FIG. 2)” value [8] is on record?
**A.** Its value is “modulate 4-transmembrane receptors (TM4) or neither receptor type”.

**Q.** For `C1CCNC1` [pyrrolidine], which “cytotoxicity during oocyte electrophysiology studies” value [15] is on record?
**A.** Its value is “cytotoxicity”.

**Q.** With `FCOC(C(F)(F)F)C(F)(F)F` [sevoflurane] as the molecule, how does the “ion channel modulation, TM3 versus TM4 receptors (FIG. 2)” value [8] read?
**A.** Its value is “modulate both 3-transmembrane (TM3) and TM4 receptors”.

**Q.** With `CCCCCCCCCCCO` [undecanol] as the molecule, how does the “ion channel modulation, TM3 versus TM4 receptors (FIG. 2)” value [8] read?
**A.** The value was “modulate 4-transmembrane receptors (TM4) or neither receptor type”.
